Drawing on patent US20230365590A1, “BIPHENYL COMPOUND AS IMMUNOMODULATOR, PREPARATION METHOD THEREFOR AND APPLICATION THEREOF” (SHENZHEN CHIPSCREEN BIOSCIENCES CO., LTD., priority 2020, published 2023), this text covers IC50 and EC50 for six compounds.

The term EC50 denotes the midpoint of the concentration-response curve.

The target in test [1] is PD-1/PD-L1 binding (recombinant human PD-L1-Fc fusion protein and His-PD-1 protein) (Homo sapiens (Human), UniProt Q9NZQ7). Nature of the test: In vitro inhibitory activity against PD-1/PD-L1 binding (HTRF). Particulars: read-out: IC50 for inhibiting PD-1/PD-L1 binding in vitro. The text has this:
Homogeneous time resolved fluorescence method (HTRF): This method uses the recombinant human PD-L1 protein fused with hFc tag and the recombinant human PD-1 protein fused with His tag, which are interacting ligands and receptors. When the anti-hFc antibody containing chelated Eu tag and the anti-His antibody containing XL665 fluorescein tag are used to bind with the above two corresponding tags respectively and are excited by 320 nm laser, energy can be transferred from Eu element to XL665 fluorescein due to ligand receptor binding, and the XL665 fluorescein is excited to emit light with a wavelength of 665 nm. When an inhibitor for inhibiting interaction of PD-L1 and PD-1 is added, the binding of the ligand and the receptor is destroyed, causing a long distance between Eu and XL665. As a result, the energy cannot be transferred, and the XL665 fluorescein will not be excited.
Experimental Materials and Devices The recombinant human PD-1 protein with His tag (His-PD-1 protein, Cat #: 10377-H08H-50) and the recombinant human PD-L1-Fc fusion protein (PD-L1-Fc fusion protein, Cat #: 10084-H02H-100) were purchased from Sino Biological Inc., anti-hFc-Eu^3+ antibody and anti-His-XL665 antibody were purchased from Cisbio, and other related reagents such as a diluent buffer (diluent buffer 5 (Cat #: 62DL5DDC) and a detection buffer (PPI-European detection buffer, Cat #: 61DB9RDF) were purchased from Cisbio. Fluorescence detector Tecan (Spark 10M) was purchased from Tecan Company in Switzerland.
The experiment process was carried out according to the flow required in the operating manual of the test reagent. The process was as follows: • (1) Experiment preparation: A test compound was diluted to different concentration gradients with the dilution buffer (the highest final concentration in a 20 μL final reaction system was 10 μM). The His-PD-1 protein was diluted to 800 nM (the final concentration in the 20 final reaction system was 100 nM). The PD-L1-Fc fusion protein was diluted to 16 nM (the final concentration was 2 nM). […] All tests were conducted by use of multiple holes. • (4) The fluorescence detector Tecan (Spark 10M) was used to detect the fluorescence signal of each hole. The excitation wavelength was 320 nm, and the emission wavelengths for detection were 620 nm and 665 nm, respectively. The strength of PD-1/PD-L1 binding refers to a fluorescence signal ratio Em665/Em620. • (5) Calculation formula of binding inhibition rate of test compound: Inhibition rate (%)=[1−(fluorescence signal ratio of detected hole−fluorescence signal ratio of 100% inhibition negative control)]/(fluorescence signal ratio of 0% inhibition positive control−fluorescence signal ratio of 100% inhibition negative control)×100%. The 50% inhibition concentration (IC50) was calculated after the PD-1/PD-L1 binding inhibition rates of the test compound with different concentration gradients were calculated respectively.
For orientation: In TR-FRET formats the signal depends on donor and acceptor labels being close together.

Test [2] has as its system PD-1/PD-L1 mediated inhibitory signal to T cell activation (CHO-PD-L1-CD3L cells and Jurkat-PD-1-NFAT cells). In words: Blocking of PD-1/PD-L1 mediated inhibitory signal to T cell activation at cell level (NFAT luciferase reporter, co-culture). The format is cell-based. Particulars: Homo sapiens, CHO-PD-L1-CD3L / Jurkat-PD-1-NFAT co-culture, 6 h. On the procedure:
In order to test the effect of interaction between PD-1 and PD-L1 on T cell activation signal in immune response, CHO-PD-L1-CD3L cells stably expressing human PD-L1 molecule and anti-CD3 single-chain antibody (ScFv) and Jurkat-PD-1-NFAT cells stably expressing human PD-1 molecule and NFAT reporter gene were constructed. When two kinds of cells are incubated together, anti-CD3 ScFv on the CHO cell surface and membrane CD3 molecule of Jurkat cell combine to transmit an activation signal into Jurkat cell. However, due to the binding of PD-L1 on the CHO cell surface and PD-1 molecule on the Jurkat cell surface at the same time, a signal for inhibiting activation is transmitted inward, so that luciferase reporter gene cannot be expressed. When an immunocheckpoint antibody or small-molecule inhibitor is added, the binding of PD-1 and PD-L1 is blocked, the NFAT pathway activated by CD3 ScFv antibody and CD3 cross-linking mediated T cell activation signal is no longer affected by the inhibitory signal, and the downstream luciferase reporter gene starts to be expressed. Chemiluminescence signals proportional to reporter gene activation can be detected by adding a catalytic substrate.
CHO-PD-L1-CD3L cells expressing human PD-L1 molecule and anti-CD3 single-chain antibody (ScFv) and Jurkat-PD-1-NFAT cells stably expressing human PD-1 molecule and NFAT reporter gene were all independently constructed and presented by Dr. Chen Bo (KeyMed Biosciences (Chengdu) Co., Ltd. Puromycin (Cat # 540411) and Hygromycin B (Cat # V900372) for stable culture of transfected cells were purchased from Sigma, PMA (Cat # P1585) was purchased from Sigma, and the anti human PD-L1 antibody (Cat # GMP-A066) was purchased from Novoprotein Company. The Luciferase substrate solution (Cat # E6485) and the luciferase-specific cell lysate 5×(Cat # E1531) were purchased from Promega company. The fluorescence detector Tecan (Spark 10M) was purchased from Tecan Company in Switzerland.
Main Process of Experiment • (1) On the day before the experiment, 100 μL of CHO-PD-L1-CD3L cells (about 4×10^4 cells/well) were inoculated at 37° C. overnight in a 96-well cell culture plate, and the culture medium was DMEM/F12 containing 10% FBS, 8 μg/mL Puromycin and 200 μg/mL Hygromycin B. • (2) The test compound was diluted with 0.1% PBST to obtain solutions with different concentration gradients, and then added into 96-well plates and incubated for 30 min in advance. The RPMI 1640 complete medium containing 10% FBS, 8 μg/mL Puromycin and 200 μg/mL Hygromycin B was used to adjust the Jurkat-PD-1-NFAT cell count to 2×10^5 cells/mL, and 100 ng/mL PMA (10 mg/mL storage solution prepared with DMSO) was added to amplify the T cell activation signal. 100 μL of the Jurkat-PD-1-NFAT cells were added into each well of the 96-well plates for co-culture. • (3) During the test reaction, control groups were set, including the solvent control without adding the test compound and the positive control with the addition of the […] in the experimental system. All tests were conducted by use of multiple holes. • (4) Incubation was continued at 37° C. for 6 h, 40 μL of 5×cell lysate was added directly, the solution was mixed well and placed at room temperature for 10 min to completely lyse cells. 50 μL of lysed cell solution was transferred to a fluorescence detection plate, 30 μL of luciferase substrate solution was then added, and the chemiluminescence detection program was immediately selected on the fluorescence detector for determination. • (5) Calculation formula of the inhibition rate of the test compound against T cell activation signal at the cell level: The inhibition rate against T cell activation signal (%)=(original chemiluminescence value of the test hole−solvent control)/(the highest original chemiluminescence value determined in the compound test hole−solvent control)×100%. […]

PD-1/PD-L1 binding (recombinant human PD-L1-Fc fusion protein and His-PD-1 protein), sequence (Q9NZQ7 19-239): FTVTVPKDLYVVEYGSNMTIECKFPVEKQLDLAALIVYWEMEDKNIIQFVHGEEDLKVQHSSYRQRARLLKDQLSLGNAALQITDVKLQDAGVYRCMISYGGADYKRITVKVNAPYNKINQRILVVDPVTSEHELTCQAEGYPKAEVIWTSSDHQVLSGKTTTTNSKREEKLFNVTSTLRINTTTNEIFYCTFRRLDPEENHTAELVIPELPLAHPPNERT

With `COCC12CCC(CN3CCc4c(nc(C(=O)Nc5cccc(-c6cccc(NC(=O)c7nc8c(n7C)CCN(CCC79CCC(C(=O)O)(CC7)C9)C8)c6Cl)c5Cl)n4C)C3)(CC1)C2` [Compound I-8, 4-(2-(2-((2,2′-dichloro-3′-(5-((4-(methoxymethyl)bicyclo[2.2.1]heptan-1-yl)methyl)-1-methyl-4,5,6,7-tetrahydro-1H-imidazo[4,5-c]pyridine-2-carboxamido)-[1, 1′-biphenyl]-3-yl)carbamoyl)-1-methyl-1,4,6,7-tetrahydro-5H-imidazo[4,5-c]pyridin-5-yl)ethyl)bicyclo[2.2.1]heptane-1-carboxylic acid], the IC50 in test [1] was 3.7 nM. Besides, in test [2], it took 30.3 nM to reach a half-maximal effect (EC50).

`COCC12CCC(CCN3CCc4c(nc(C(=O)Nc5cccc(-c6cccc(NC(=O)c7nc8c(n7C)CCN(CCC79CCC(C(=O)O)(CC7)C9)C8)c6Cl)c5F)n4C)C3)(CC1)C2` [Compound I-9, 4-(2-(2-((2-chloro-2′-fluoro-3′-(5-(2-(4-(methoxymethyl)bicyclo[2.2.1]heptan-1-yl)ethyl)-1-methyl-4,5,6,7-tetrahydro-1H-imidazo [4,5-c]pyridine-2-carboxamido)-[1,1′-biphenyl]-3-yl)carbamoyl)-1-methyl-1,4,6,7-tetrahydro-5H-imidazo[4,5-c]pyridin-5-yl)ethyl)bicyclo[2.2.1]heptane-1-carboxylic acid]: the IC50 in test [1] came out at 0.88 nM. The compound also yielded an EC50 in test [2] of 6.79 nM.

In the case of `Cn1c(C(=O)Nc2cccc(-c3cccc(NC(=O)c4nc5c(n4C)CCN(CCC46CCC(C(=O)O)(CC4)C6)C5)c3Cl)c2F)nc2c1CCN(CCC13CCC(COC(F)F)(CC1)C3)C2` [Compound I-10, 4-(2-(2-((2-chloro-3′-(5-(2-(4-((difluoromethoxy)methyl)bicyclo[2.2.1]heptan-1-yl)ethyl)-1-methyl-4,5,6,7-tetrahydro-1H-imidazo[4,5-c]pyridine-2-carboxamido)-2′-fluoro-[1,1′-biphenyl]-3-yl)carbamoyl)-1-methyl-1,4,6,7-tetrahydro-5H-imidazo[4,5-c]pyridin-5-yl)ethyl)bicyclo[2.2.1]heptane-1-carboxylic acid], in test [1], the IC50 came to 1.13 nM. This compound also gave an EC50 in test [2] of 35.5 nM.

`COCC12CCC(CCN3CCc4c(nc(C(=O)Nc5cccc(-c6cccc(NC(=O)c7nc8c(n7C)CCN(CCC79CCC(C(=O)O)(CC7)C9)C8)c6Cl)c5C#N)n4C)C3)(CC1)C2` [Compound I-11, 4-(2-(2-((2-chloro-2′-cyano-3′-(5-(2-(4-(methoxymethyl)bicyclo[2.2.1]heptan-1-yl)ethyl)-1-methyl-4,5,6,7-tetrahydro-1H-imidazo[4,5-c]pyridine-2-carboxamido)-[1,1′-biphenyl]-3-yl)carbamoyl)-1-methyl-1,4,6,7-tetrahydro-5H-imidazo[4,5-c]pyridin-5-yl)ethyl)bicyclo[2.2.1]heptane-1-carboxylic acid]: the IC50 in test [1] stood at 1.94 nM. This compound yielded a concentration for a half-maximal effect (EC50) in test [2] of 26.3 nM.

`COCC12CCC(CCN3CCc4c(nc(C(=O)Nc5cccc(-c6cccc(NC(=O)c7nc8c(n7C)CCN(CC79CCC(C(=O)O)(CC7)C9)C8)c6Cl)c5C)n4C)C3)(CC1)C2` [Compound I-12, 4-((2-((2-chloro-3′-(5-(2-(4-(methoxymethyl)bicyclo[2.2.1]heptan-1-yl)ethyl)-1-methyl-4,5,6,7-tetrahydro-1H-imidazo[4,5-c]pyridine-2-carboxamido)-2′-methyl-[1,1′-biphenyl]-3-yl)carbamoyl)-1-methyl-1,4,6,7-tetrahydro-5H-imidazo[4,5-c]pyridin-5-yl)methyl)bicyclo[2.2.1]heptane-1-carboxylic acid]: in test [1], the IC50 was 2.46 nM. The concentration for a half-maximal effect (EC50) in test [2] came out at 38.3 nM.

For the compound `Cn1c(C(=O)Nc2cccc(-c3cccc(NC(=O)c4nc5c(n4C)CCN(CC46CCC(C(=O)O)(CC4)C6)C5)c3Cl)c2Cl)nc2c1CCN(CCO)C2` [Example 180], the IC50 in test [1] is 4.62 nM. Besides, in test [2], the EC50 turned out to be 108 nM.
